Reference: patent US20250281440A1, “METHOD TO IMPROVE GROWTH PERFORMANCE, LIVABILITY, CARCASS CHARACTERISTICS AND/OR MILK QUALITY IN SWINE” (NutriQuest, LLC, priority 2024, published 2025)
Values joined by “and” are separate entries in the source; they are usually repeats but may differ in a detail not shown here. Identical values can stand only once. Marks after values point to notes of the source that are not given here.

How the values were obtained:
[1] = tested on: growing pigs; test: Incidence of lameness in pigs fed DMG (Example 4); assay type: in vivo
Experimental: A total of 1,180 growing pigs (initial BW=51.4±1.0 lb) were housed in pens with 25 to 27 pigs per pen. […] This experiment extended over a 17-wk period until pigs were harvested at 292.5±1.7 lb of BW. Signs of lameness were recorded, and percentage of pigs removed to hospital pens due to lameness were calculated (Table 3).

[2] = tested on: broilers; conditions: cited from earlier work
[3] = tested on: sows; conditions: sows fed DMG from day 105 of gestation until day 3 of lactation; cited from earlier work
[4] = tested on: lactating sows; test: Serum non-esterified fatty acids (NEFA) in lactating sows (Example 6); assay type: in vivo, pigs; conditions: 445 mg Na-DMG per day, measured at weaning
From the text: Serum non-esterified fatty acids (NEFA) are molecules released from adipose tissue during periods of energy demand or catabolic status. In research of energy metabolism, NEFA level has been used as biomarker to assess balance between fat mobilization and energy expenditure.

[5] = tested on: finishing pigs; test: Meta-analysis (3-trial combined) of morbidity, mortality and F/G in late finishing pigs fed Na-DMG (Examples 5 and 7); assay type: in vivo
From the text: Three studies were compiled to evaluate the effects of dietary supplementation of Na-DMG (78%) on morbidity and mortality in finishing pigs. In each study, pigs were fed either a Control diet or diet containing Na-DMG at 0.50 lb/ton from approximately 180 lb of body weight until harvested at 290 lb for a period of 6 to 8 weeks. […] Reasons of morbidity and mortality included, but not limited to, lameness, ileitis, bacterial infection, injury, prolapse, intestinal torsion, stomach ulcers, abdominal rupture, bloat, failure to eat.
(§1) Animals produce greenhouse gases due to biological processes for growth and maintenance functions. Pig production would therefore be a source of greenhouse gases and wean to finish production would result in production of carbon dioxide, methane, and nitrous oxide emissions. Using the Iowa Pork Industry's sustainability calculator, we calculated the impact feedings of DMG in late finishing would have on greenhouse gas emissions. […] We then took similar estimates for early performance and estimated F/G and mortality for an entire grow-out period to use in the calculator. The calculator provides equivalent lb. of carbon dioxide per lb. or market weight for comparison purposes. By adding DMG in late finishing, carbon dioxide emissions were reduced by 3% during the entire wean to finish grow-out.

[6] = tested on: rats; conditions: when folate was sufficient; cited from earlier work
[7] = Calculated wean-to-finish performance and greenhouse gas emissions, Pork Sustainability Calculator (Example 7); parameters: species or system pigs; conditions: DMG @ 0.5 lb/ton in late finishing
From the text: as §1

[8] = tested on: sows (PIC 1050); test: Milk fat content in sows fed Na-DMG (78%) (Example 2); assay type: in vivo, pigs
[9] = tested on: commercial finishing pigs; test: Growth performance, livability and carcass characteristics of finishing pigs fed DMG (Example 3); assay type: in vivo; conditions: for ADFI / Carcass yield / Closeout ADG / Closeout G/F / End BW / Fat depth / Fat-free carcass lean / Hot carcass weight / Loin depth / Non-selected pigs (lights and culls) / Morbidity / Mortality / Pigs sold to primary market: 8-wk
From the text: To evaluate the impact of increasing dietary levels of 78% sodium dimethylglycine (DMG) on growth performance, livability, and carcass characteristics of commercial finishing pigs, a total of total of 1,115 mixed-sex finishing pigs (initial BW=70.1±1.8 kg) were housed in pens with 25 to 27 pigs per pen. Pens within block were assigned randomly to one of four dietary treatments containing 0 (Control), 0.25 (DMG_0.25), 0.5 (DMG_0.5) or 1.0 (DMG_1.0) g DMG/kg of feed with 11 replicates per treatment. This experiment extended over an 8-wk period until pigs were harvested at 125.4±0.8 kg of BW.
Data were analyzed using the MIXED procedure of SAS, and preplanned orthogonal contrasts were conducted to evaluate pairwise comparisons as well as linear and quadratic effects related to the increased levels of DMG. While no linear effect was observed, there was a tendency for a quadratic response in closeout feed efficiency (G/F, P=0.08) and the percentage of pigs with morbidity (P=0.06), with the most favorable responses found in pigs fed DMG_0.25 (Table 2).

[10] = tested on: commercial finishing pigs (PIC 800×PIC 1050); test: Carcass characteristics of finishing pigs fed increasing dietary 78% Na-DMG (Example 1); assay type: in vivo; conditions: for 10th-rib backfat depth reduction (numerical) / Loin depth improvement compared to Control: carcasses; for Loin depth improvement compared to Control: P<0.05
Experimental: A study was conducted to evaluate the impact of increasing dietary levels of 78% Na-DMG on carcass characteristics of commercial finishing pigs (PIC 800×PIC 1050). A total of 723 mixed-sex finishing pigs (initial BW=179.5±1.0 lb) were housed in pens with 25 to 27 pigs per pen. […] This experiment extended over a 6-week period until pigs were harvested at 292.5±1.7 lb of BW.

[11] = Na-DMG 0.50 lb/ton, approx. 180 to 290 lb BW, 6 to 8 weeks

For `CN(C)CC(=O)O` [DMG, N,N-dimethylglycine], the “Lameness (pigs removed to hospital pens due to lameness)” value ([1]; DMG_0.25 (0.25 lb DMG/ton feed), 17-wk) was 0.3%^d, the “Lameness (pigs removed to hospital pens due to lameness)” value ([1]; DMG_0.50 (0.50 lb DMG/ton feed), 17-wk) was 0.7%^cd and the “Lameness (pigs removed to hospital pens due to lameness)” value ([1]; DMG_0.75, 17-wk) was 1.4%^cd. The “Incidence of lameness compared to Control” value ([1]; regardless of dietary concentration, statistically (P<0.10) or numerically (P>0.10)) was “reduced incidence of lameness”, the Nutrient digestibility [2] was “improved nutrient digestibility” and the Nutrient digestibility [3] was “improved nutrient digestibility”. For the same molecule, the “Serum NEFA reduction compared to Control” value [4] was 32%, the “Closeout F/G, late finishing testing period” value ([5]; DMG @ 0.5 lb/ton) was 3.30 and the “Closeout F/G, late finishing testing period, % Change vs Control” value ([5]; DMG @ 0.5 lb/ton) was −4.6%. For the same molecule, the “Mortality, late finishing testing period, % Change vs Control” value ([5]; DMG @ 0.5 lb/ton) was −39.0%, the “Reduction of morbidity compared to Control” value ([5]; Na-DMG 0.50 lb/ton) was 72% and the “Reduction of total removal compared to Control” value ([5]; Na-DMG 0.50 lb/ton) was 53%. The Morbidity [5, 11] was 0.36%, the Mortality [5, 11] was 1.08% and the “Non-selected (culls and lights)” value [5, 11] was 5.48%. For the same molecule, the “Pigs sold to primary market” value [5, 11] was 93.1%, the Total pigs finished [5, 11] was 98.6% and the Total removal [5, 11] was 1.44%. For the same molecule, the Plasma homocysteine level [6] was “significantly reduced”, the “Calculated wean-to-finish closeout F/G, % Change vs Control” value [7] was −2.6% and the “Calculated wean-to-finish mortality, % Change vs Control” value [7] was −18.3%. The Calculated wean-to-finish mortality ([7]; early mortality rate of 2% combined) was 3.08%, the “Calculated wean-to-finish closeout F/G” value ([7]; feed budget of 353 lb per pig combined) was 2.58 and the “Total milk fat, % (Day 10-14 in lactation)” value ([8]; 0.5 lb/ton from day 100 of gestation through lactation) was 6.114%. For the same molecule, the “Total milk fat, % (Day 10-14 in lactation)” value ([8]; 0.5 lb/ton from farrowing through lactation) was 5.973%, the “Carcass characteristics (hot carcass weight, carcass yield, fat depth, loin depth, fat-free carcass lean)” value ([9]; 0.25, 0.5 and 1.0 g DMG/kg feed vs Control) was “not different among treatments” and the ADFI ([9]; 0.25 g DMG/kg feed) was 3.00^b kg/day. For the same molecule, the Carcass yield ([9]; 0.25 g DMG/kg feed) was 72.6%, the “Closeout ADG” value ([9]; 0.25 g DMG/kg feed) was 1.01 kg/day and 1.01^y kg/day and the “Closeout G/F” value ([9]; 0.25 g DMG/kg feed) was 0.337. The “End BW” value ([9]; 0.25 g DMG/kg feed) was 126.4 kg, the Fat depth ([9]; 0.25 g DMG/kg feed) was 16.6 mm and the Fat-free carcass lean ([9]; 0.25 g DMG/kg feed) was 56.2%. The Hot carcass weight ([9]; 0.25 g DMG/kg feed) was 93.5 kg, the Loin depth ([9]; 0.25 g DMG/kg feed) was 62.5 mm and the “Non-selected pigs (lights and culls)” value ([9]; 0.25 g DMG/kg feed) was 8.7%. The “Increase in closeout ADG compared with Control” value ([9]; 0.25 g DMG/kg feed, P=0.02) was 6%, the “Increase in closeout G/F compared with Control” value ([9]; 0.25 g DMG/kg feed, P=0.05) was 4% and the ADFI ([9]; 0.5 g DMG/kg feed) was 2.93^a kg/day. For the same molecule, the Carcass yield ([9]; 0.5 g DMG/kg feed) was 73.6%, the “Closeout ADG” value ([9]; 0.5 g DMG/kg feed) was 0.95^x kg/day and the “Closeout G/F” value ([9]; 0.5 g DMG/kg feed) was 0.326. The “End BW” value ([9]; 0.5 g DMG/kg feed) was 124.9 kg, the Fat depth ([9]; 0.5 g DMG/kg feed) was 17.0 mm and the Fat-free carcass lean ([9]; 0.5 g DMG/kg feed) was 56.0%. The Hot carcass weight ([9]; 0.5 g DMG/kg feed) was 94.1 kg, the Loin depth ([9]; 0.5 g DMG/kg feed) was 62.2 mm and the Morbidity ([9]; 0.5 g DMG/kg feed) was 0.7^cd %. For the same molecule, the Mortality ([9]; 0.5 g DMG/kg feed) was 2.5^d %, the “Non-selected pigs (lights and culls)” value ([9]; 0.5 g DMG/kg feed) was 9.4% and the “Pigs sold to primary market” value ([9]; 0.5 g DMG/kg feed) was 87.4%. The ADFI ([9]; 1.0 g DMG/kg feed) was 2.99^ab kg/day, the Carcass yield ([9]; 1.0 g DMG/kg feed) was 73.8% and the “Closeout ADG” value ([9]; 1.0 g DMG/kg feed) was 0.97^xy kg/day. The “Closeout G/F” value ([9]; 1.0 g DMG/kg feed) was 0.323, the “End BW” value ([9]; 1.0 g DMG/kg feed) was 125.8 kg and the Fat depth ([9]; 1.0 g DMG/kg feed) was 16.8 mm. For the same molecule, the Fat-free carcass lean ([9]; 1.0 g DMG/kg feed) was 56.0%, the Hot carcass weight ([9]; 1.0 g DMG/kg feed) was 94.2 kg and the Loin depth ([9]; 1.0 g DMG/kg feed) was 61.7 mm. The Morbidity ([9]; 1.0 g DMG/kg feed) was 2.2^d %, the Mortality ([9]; 1.0 g DMG/kg feed) was 1.4^cd % and the “Non-selected pigs (lights and culls)” value ([9]; 1.0 g DMG/kg feed) was 6.5%. The “Pigs sold to primary market” value ([9]; 1.0 g DMG/kg feed) was 90.0%, the “Growth performance and livability compared with Control” value ([9]; DMG at 0.5 and 1.0 g/kg, P>0.10) was “not different compared with Control” and the Fat-free carcass lean ([10]; DMG at 0.25 lb/ton, P<0.10) was “tended to be improved”. For the same molecule, the “10th-rib backfat depth reduction (numerical)” value ([10]; DMG at 0.25 lb/ton) was 3.4%, the “Loin depth improvement compared to Control” value ([10]; DMG at 0.25 lb/ton) was 2.5% and the “10th-rib backfat depth reduction (numerical)” value ([10]; DMG at 0.50 lb/ton) was 2.3%. For the same molecule, the “Loin depth improvement compared to Control” value ([10]; DMG at 0.75 lb/ton) was 3.5% and the “Loin depth, response to increasing dietary DMG level” value ([10]; increasing dietary DMG level, P=0.04) was “linearly improved”.
